Here are results for four molecules from patent publication US20230028659A1, “THERAPEUTIC COMPOSITIONS AND METHODS FOR PREVENTION AND TREATMENT OF DIASTOLIC DYSFUNCTION” (AMBETEX PTY LTD, priority 2019, published 2023).

Data set [1] concerns Primary mouse neonatal ventricular cardiomyocytes. The data set is described as follows: Neonatal ventricular cardiomyocyte experiments, antagonist studies (gene expression). The data set is classed as cell-based. Conditions: 10 uM, cardiomyocytes exposed to Aβ42, FIG. 6B. As for the experimental part:
Total mRNA from the tissues was extracted by homogenizing ˜20-30 milligrams of tissue in 1 ml of Trizol followed by incubation at room temperature (RT) for 5 min. 200 μL of chloroform was added to the homogenate, shaken for 15 seconds and incubated for 1 min at RT before centrifuging at 12,000 g for 10 min at 4° C. for extracting the upper aqueous phase. An equal volume (350 μl for cell lysate/450 μL for tissue) of 70% ethanol was added to cell/tissue samples and they were further purified with RNeasy spin columns (the RNeasy®min i Kit, Qiagen). Complementary DNA (cDNA) was synthesised using the SuperScript™ III transcription system (Invitrogen). cDNA was quantified by OliGreen assay (Quant-iT™ OliGreen® ssDNA Assay Kit; Invitrogen). All primers were designed in-house using the Beacon Primer Designer program software and synthesised by Gene Works (Adelaide, Australia). […] Gene expression levels were quantified using the FastStart Universal SYBR Green Master (ROX; Roche Applied-Science) on the MX3005P™ Multiplex Quantitative PCR (QPCR) system (Stratagene). […]
Neonatal ventricular cardiomyocyte experiments: Primary mouse neonatal ventricular cardiomyocytes were isolated from one day old neonate mice. […] 48 hr after infection, cells were harvested and homogenized in protein lysis buffer, total protein concentration was determined and western blotting was performed, as described above. […]

Data set [2] relates to mice on HFD (established obesity). The data set is described as follows: Basimglurant-High Fat Diet (HFD) treatment study. Type of data set: in vivo. Conditions: obese mice. As for the experimental part: Basimglurant-High Fat Diet (HFD) treatment study: At 12 weeks of age, mice (n=30) were placed on a HFD with 43% of calories from fat (23.5% by weight; SF04-001 High Fat Rodent Diet Based on D12451, Specialty Feeds, Glen Forrest, Wash.). After 13 weeks of the diet period, echocardiography was performed on all mice to obtain pre-drug treatment measures of cardiac function. Mice were allocated to treatment groups so that measures of cardiac function and morphology were matched as best as possible. Basimglurant (MedChemExpress) was resuspended in 100% DMSO before being diluted in a hydroxypropyl cellulose solution to give a final solution containing 0.25 mg/mL Basimglurant in 10% hydroxypropyl cellulose and 5% DMSO. A vehicle solution containing 10% hydroxypropyl cellulose and 5% DMSO was also made. Aliquots of both drug and vehicle were stored at −80° C. until required. The HFD/Basimglurant group was administered 1 mg/kg of Basimglurant per day by oral gavage, while the HFD/control group received an equivalent volume of vehicle. Echocardiography was then performed following 4 weeks of the treatment period to obtain post-drug treatment measures of cardiac function. Following 5 weeks of the drug administration, mice were humanely killed via cervical dislocation and blood was immediately obtained via cardiac puncture and stored in a heparinised tube. […]

Data set [3] relates to Male C57BL6 mice. Put plainly: Aβ42 and mGluR5 NAM administration study. The data set is classed as in vivo. Conditions: Basimglurant 1 mg/kg oral gavage or vehicle plus Aβ42 i.p. once/day; for plasma Aβ42 compared with the ScrAβ42+Veh group: FIG. 9A; for Peak E wave compared with the ScrAβ42+Veh group: FIG. 9B. The procedure:
Basimglurant (MedChemExpress) was resuspended in 100% DMSO before being diluted in a hydroxypropyl cellulose solution to give a final solution containing 0.25 mg/mL Basimglurant in 10% hydroxypropyl cellulose and 5% DMSO. A vehicle solution containing 10% hydroxypropyl cellulose and 5% DMSO was also made. Aliquots of both drug and vehicle were stored at −80° C. until required. Male C57BL6 mice were obtained from the Animal Resource Centre (Perth, Wash.) at 4 weeks of age and housed with 4 mice per cage on a 12 hr light/dark cycle at a temperature of 22° C. and a constant humidity with a normal rodent diet. At 12 weeks of age, mice were grouped according to body mass and composition, determined by EchoMRI. […] After 4 weeks of drug and peptide administration, cardiac function was assessed by echocardiography as follows. Mice were anaesthetised with inhalation of 1.5% isoflurane anaesthesia and echocardiography was performed using the Phillips HD15 diagnostic ultrasound system with a 15 MHz linear-array transducer by an experienced veterinarian. The velocity of blood flow through the mitral valve was analysed using Doppler mode imaging. […] Doppler imaging was also utilised to measure the velocity of blood flow through the aortic valve. The measurements were then used to calculate the ejection time (LVET), peak aortic flow and heart rate. M-mode imaging of the left ventricle was used to measure the thickness of the inter-ventricular septum (IVS), left ventricular internal diameter (LVID) and left ventricular posterior wall (LVPW) in both diastole (d) and end-systole (s) as well as systolic measures such as ejection fraction and fractional shortening. An estimation of LV mass was calculated from the m-mode imaging by using the formula (1.05[LVIDd+LVPWd+IVSd]^3−[LVIDd]^3) by Troy et al. (1972). The myocardial performance index (MPI), a global index of both diastolic and systolic cardiac function, was calculated using the formula ([IVCT+IVRT]/LVET), by Tei et al. (1995). Mice were humanely killed by cervical dislocation 1 week later. Blood was obtained immediately following by cardiac puncture and the heart, and other tissues were immediately removed. Hearts were washed in ice cold PBS and weighed prior to being snap frozen in liquid nitrogen.

In data set [4] the test system is Male C57BL6 mice. The data set is described as follows: Aβ42 administration study: cardiac function by echocardiography. Type of data set: in vivo. The procedure:
After 4 weeks of peptide administration, cardiac function was assessed by echocardiography as follows. Mice were anaesthetised with inhalation of 1.5% isoflurane anaesthesia and echocardiography was performed using the Phillips HD15 diagnostic ultrasound system with a 15 MHz linear-array transducer by an experienced veterinarian. The velocity of blood flow through the mitral valve was analysed using Doppler mode imaging. […] Doppler imaging was also utilised to measure the velocity of blood flow through the aortic valve. The measurements were then used to calculate the ejection time, peak aortic flow and heart rate. M-mode imaging of the left ventricle was used to measure the thickness of the inter-ventricular septum (IVS), left ventricular internal diameter (LVID) and left ventricular posterior wall (LVPW) in both diastole (d) and end-systole (s) as well as systolic measures such as ejection fraction and fractional shortening. An estimation of LV mass was calculated from the m-mode imaging by using the formula (1.05[LVIDd+LVPWd+IVSd]^3−[LVIDd]^3) by Troy et al. (1972). Mice were humanely killed by cervical dislocation 1 week later. Blood was obtained immediately following by cardiac puncture and the heart, and other tissues were immediately removed. Hearts were washed in ice cold PBS and weighed prior to being snap frozen in liquid nitrogen.

The subject of data set [5] is Male C57BL6 mice. Put plainly: Aβ42 administration study: heart gene expression and western blotting (NLRP3 inflammasome, PKD). The conditions noted are these: chronic administration. Type of data set: in vivo. The procedure: Total mRNA from the tissues was extracted by homogenizing ˜20-30 milligrams of tissue in 1 ml of Trizol followed by incubation at room temperature (RT) for 5 min. 200 μL of chloroform was added to the homogenate, shaken for 15 seconds and incubated for 1 min at RT before centrifuging at 12,000 g for 10 min at 4° C. for extracting the upper aqueous phase. An equal volume (350 μl for cell lysate/450 μL for tissue) of 70% ethanol was added to cell/tissue samples and they were further purified with RNeasy spin columns (the RNeasy®min i Kit, Qiagen). Complementary DNA (cDNA) was synthesised using the SuperScript™ III transcription system (Invitrogen). cDNA was quantified by OliGreen assay (Quant-iT™ OliGreen® ssDNA Assay Kit; Invitrogen). All primers were designed in-house using the Beacon Primer Designer program software and synthesised by Gene Works (Adelaide, Australia). Primer sequence efficiency was tested over a wide concentration range. Gene expression levels were quantified using the FastStart Universal SYBR Green Master (ROX; Roche Applied-Science) on the MX3005P™ Multiplex Quantitative PCR (QPCR) system (Stratagene). Log-transformed CT values were normalised to cDNA concentration to determine relative gene expression levels.
Approximately 20 mg of ventricle tissue was homogenised in ice-cold lysis buffer (50 mM Tris pH7.5, 1 mM EDTA, 1 mM EGTA, 10% glycerol, 1% triton X-100, 50 mM NaF, 5 mM Na4P2O7, 1 mM Na3VO4, 1 mM DTT, protease inhibitor cocktail) and protein content was determined using the BCA method. […] Blocked membranes were exposed to primary antibodies towards pro-caspase-1, mature caspase 1, total PKD, PKD phosphorylated at ser744 and 748 (Cell Signalling Technology, Danvers, USA) and α-tubulin (Sigma-Aldrich, St. Louis, USA). Membranes were visualised and bands quantified by using the ChemiDoc™ XRS+ with Image Lab™ software.
(Immunoblotting shows a protein as a band on a membrane.)

Data set [6] concerns Male C57BL6 mice. The data set is described as follows: Aβ42 administration study: GTT with glucose tracers, cardiac metabolism. The data set is classed as in vivo.
Procedure: Male C57BL6 mice were obtained from the Animal Resource Centre (Perth, Wash.) at 4 weeks of age and housed with 4 mice per cage on a 12 hr light/dark cycle at a temperature of 22° C. and a constant humidity with a normal rodent diet. At 12 weeks of age, mice were grouped according to body mass and composition, determined by EchoMRI. […] An i.p. glucose tolerance test (GTT) was performed on the final treatment day following an overnight fast. Mice were administered 2 g/kg lean mass of glucose including radioactive glucose tracers, prepared as follows. 100 μl of 1 μCi/μ1 glucose analogue, [^3H]-2-deoxyglucose (2-DOG), and 500 μl of 200 μCi/mL U-^14C glucose were evaporated to dryness before redissolving the radioactive tracers in 1 mL of 50% glucose. This produced a 50% glucose solution containing 100 μCi/mL [^3H]-2-DOG and 100 μCi/mL U-^14C glucose. The tail tip of each mouse was cut off and the blood glucose concentration of a blood sample was measured using an AccuCheck II glucometer (Roche). The GTT was initiated via intraperitoneal injection of the radiolabelled glucose solution (2 g/kg body weight, 10 uCi/animal) into the overnight-fasted mice. Further blood samples were taken at 15, 30, 45, 60 and 90 minutes after the injection for the measurement of blood glucose. Blood samples (30 μl) were also taken from the tail tip at each time point and diluted in 100 μl of saline. These samples were then centrifuged and the supernatant collected. 50 μl of the supernatant was diluted in 500 μl of distilled water and then suspended in 4 mL of Ultima Gold XR scintillation fluid (Packard Bioscience). Blood radioactivity was determined at each time point by performing liquid scintillation counting on each solution using the Beckman scintillation counter (LS6000 SC). At the conclusion of the GTT, mice were killed via cervical dislocation. Blood was obtained immediately following by cardiac puncture and the heart, and other tissues were immediately removed. Hearts were washed in ice cold PBS and weighed prior to being snap frozen in liquid nitrogen. The heart (30 mg), epididymal fat pad (30 mg and quadriceps skeletal muscle (30 mg) were homogenised in 1.5 ml of distilled water. The homogenate was centrifuged at 3000 rpm for 10 min at 4° C. 400 μl of the supernatant was diluted into 1.6 mL of distilled water and then suspended in 14 mL of Ultima Gold XR scintillation fluid (Packard Bioscience). The radioactivity of each sample (from both [^3H]-2-DOG6P and [^3H]-2-DOG) was determined by liquid scintillation counting using the Beckman scintillation counter (LS6000 SC).
The ^3H radioactivity was used to measure glucose uptake into each tissue.
To determine the incorporation of U-^14C glucose into triglyceride and the total triglyceride content in the heart, an extraction of triglyceride was carried out using a chloroform/methanol mixture. Samples of heart (30 mg) were hand-homogenised in 2 mL of chloroform/methanol (2:1) and the homogeniser rinsed in a further 2 mL of chloroform/methanol (2:1), and the washings being added to the original extract in 10 mL tubes. The tubes were tightly capped and mixed on a rotator overnight to maximise extraction of the triglycerides. […] The amount of U-^14C glucose clearance into the lipid fraction was measured by suspending 100 μl of the triglyceride solution in 5 mL of Ultima Gold XR scintillation fluid (Packard Bioscience), followed by scintillation counting using the Beckman scintillation counter (LS6000 SC).
Data set [7] deals with Male C57BL6 mice. Put plainly: Aβ40 administration study. The data set is classed as in vivo. Also on record: dose or concentration left out as unconfirmed. The conditions noted are these: i.p. for 5 weeks vs ScrAβ40, FIG. 11A. The procedure:
Aβ40 administration study: Lyophilised recombinant Aβ40 (Millipore) and scrambled control peptide (ScrAβ40; Millipore) were resuspended in 1% NH4OH and aliquoted at 200 ng/ml in H2O and stored at −80° C. for no longer than 4 weeks. Male C57BL6 mice were obtained from the Animal Resource Centre (Perth, Wash.) at 4 weeks of age and housed with 4 mice per cage on a 12 hr light/dark cycle at a temperature of 22° C. and a constant humidity with a normal rodent diet. At 12 weeks of age, mice were grouped according to body mass and composition, determined by EchoMRI. […] After 4 weeks of peptide administration, cardiac function was assessed by echocardiography as follows. Mice were anaesthetised with inhalation of 1.5% isoflurane anaesthesia and echocardiography was performed using the Phillips HD15 diagnostic ultrasound system with a 15 MHz linear-array transducer by an experienced veterinarian. The velocity of blood flow through the mitral valve was analysed using Doppler mode imaging. […] Doppler imaging was also utilised to measure the velocity of blood flow through the aortic valve. […] An estimation of LV mass was calculated from the m-mode imaging by using the formula (1.05 [LVIDd+LVPWd+IVSd]^3−[LVIDd]^3) by Troy et al. (1972). […] Plasma […] was measured using a high sensitivity ELISA kit (Wako Diagnostics) and plasma that was diluted 1:10 with assay buffer.

`O=C1NCCCc2c1oc1ccc(O)cc21` [CID755673]: the “Aβ42-induced increase in inflammatory gene expression” value in data set [1] was “prevented”.

`Cc1nc(C#Cc2ccnc(Cl)c2)c(C)n1-c1ccc(F)cc1` [Basimglurant]: the DT after treatment in data set [2] (13 weeks HFD then 4 weeks daily 1 mg/kg oral gavage, FIG. 12A) was 100 % of baseline levels. In data set [2] (daily 1 mg/kg oral gavage, FIG. 12B), the “plasma Aβ42 levels” value is “did not have any effect”. The “plasma Aβ42 compared with the ScrAβ42+Veh group” value with Male C57BL6 mice [3] was “significantly increased”. In addition, the “Peak E wave compared with the ScrAβ42+Veh group” value with Male C57BL6 mice [3] (echocardiography after 4 weeks) was “reduced in the Aβ42+Veh group, but not in the Aβ42+Basimglurant groups”. Besides, in the data set on Male C57BL6 mice [3] (echocardiography after 4 weeks, FIG. 9C), the “myocardial performance index (MPI) compared with the ScrAβ42+Veh group” value is listed as “increased in the Aβ42+Veh group, but not in the Aβ42+Basimglurant groups”.

With “Aβ42: Lyophilised recombinant Aβ42 (Millipore), amyloid beta peptide of 42 amino acids”, the deceleration time entry in the data set on Male C57BL6 mice [4] (echocardiography, vs ScrAβ42, FIG. 2D) is on record as “increased”. Besides, the “E normalised by isovolumetric relaxation time (IVRT)” value in the data set on Male C57BL6 mice [4] (echocardiography, vs ScrAβ42, FIG. 2E) is “no significant difference”. For the same molecule, the fractional shortening entry in the data set with Male C57BL6 mice [4] (echocardiography, vs ScrAβ42, FIG. 2F) was “reduced”. In addition, the ejection fraction result with Male C57BL6 mice [4] (echocardiography, vs ScrAβ42, FIG. 2G) is on record as “reduced”. Also, the gross heart weight result in the data set on Male C57BL6 mice [4] (five weeks of peptide vs ScrAβ42, FIG. 2A) is “no effect”. Moreover, the “internal dimensions of the left ventricle (LVIDd)” value with Male C57BL6 mice [4] (five weeks of peptide vs ScrAβ42, FIG. 2B) is given as “no effect”. For the same molecule, the “phosphorylation of PKD at ser744 and 748” value with Male C57BL6 mice [5] (FIG. 6A) was “increased”. In the data set on Male C57BL6 mice [5] (heart, FIG. 5A), the “expression of genes associated with priming of the NLRP3 inflammasome (Nlrp3, Ifna, Il18)” value is reported as “increased”. In addition, in the data set with Male C57BL6 mice [5] (western blot, FIG. 5B), the “mature caspase 1” value is given as “increased” and the “pro-caspase 1” value is listed as “increased”. The “plasma Aβ42 compared with the ScrAβ42+Veh group” value in the data set on Male C57BL6 mice [3] is given as “elevated”. The “Peak E wave compared with the ScrAβ42+Veh group” value with Male C57BL6 mice [3] (echocardiography after 4 weeks) is listed as “reduced”. Also, the “whole body glucose tolerance or plasma insulin throughout the GTT” value with Male C57BL6 mice [6] (after five weeks of peptide, vs ScrAβ42) is “no difference”. Further, in the data set with Male C57BL6 mice [6] (heart, FIG. 1C), the “glucose incorporation into TAG (14C-glucose labelling)” value is recorded as “greater”. Also, in the data set with Male C57BL6 mice [6] (heart, FIG. 1D), the “total TAG” value is reported as “increased”. In the data set with Male C57BL6 mice [6] (heart, FIG. 1E), the “cardiac gene expression (inflammation, endoplasmic reticulum stress)” value is “gene expression changes indicative of cardiac stress responses”. Further, the “increase in plasma Aβ42 compared with administration of ScrAβ42” value in the data set with Male C57BL6 mice [6] (i.p. 1 μg/day for five weeks, FIG. 1A) is listed as “approximately 3 fold”.

Consider “Aβ40: Lyophilised recombinant Aβ40 (Millipore), amyloid beta peptide”, for which, in the data set with Male C57BL6 mice [7], the “plasma Aβ40” value was “significantly increased”.
